How the values were obtained:
Assay in all cases: relative viability (nuclei count vs DMSO), 5 days (fraction); higher = more cells survive
[1] = compound: C1CSC2=C(C(=O)N1)SC3=C2C=C(C=C3)O [kb NB 142-70]
In short: (§1)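 Acceptance criteria were a control CV below 25% and at least one doubling per plate. Lung cancer cell lines in 1536-well plates got five library-drug doses (not always all listed) √10 apart by pinning and were left 5 days with no medium change. Viability divides treated-well nuclei by vehicle-well nuclei and is the median across plates. Nuclei were counted by MetaXpress from 4× Hoechst images.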

[2] = compound: NCC(=O)Nc1ccc(-n2nc(C(F)(F)F)cc2-c2ccc3c(ccc4ccccc43)c2)cc1
In short: as §1

[3] = compound: C1CSC2=C(C(=O)N1)SC3=C2C=C(C=C3)O [kb NB 142-70] + CC1(C)CCC(c2ccc(Cl)cc2)=C(CN2CCN(c3ccc(C(=O)NS(=O)(=O)c4ccc(N[C@H](CCN5CCOCC5)CSc5ccccc5)c(S(=O)(=O)C(F)(F)F)c4)cc3)CC2)C1 [Navitoclax] (partner 0.5 µM)
In short: (§2)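 For relative viability, nuclei counts in treated wells were divided by those in vehicle wells. Lung cancer cell lines had been pin-tool dosed in 1536-well plates the day after seeding and cultured for 5 days, then fixed and stained in one step (final 0.05% Triton X-100, 1% formaldehyde, 1 ug/ml Hoechst) and imaged at 4×. Doses were one drug alone or a fixed anchor-drug dose plus five library-drug doses (not always all listed) in √10 steps, and values are duplicate-plate medians.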

[4] = compound: C1CSC2=C(C(=O)N1)SC3=C2C=C(C=C3)O [kb NB 142-70] + Nc1nc2[nH]cc(CCc3ccc(C(=O)N[C@@H](CCC(=O)O)C(=O)O)cc3)c2c(=O)[nH]1 [Pemetrexed] (partner 0.2 µM)
In short: as §2

[5] = compound: NCC(=O)Nc1ccc(-n2nc(C(F)(F)F)cc2-c2ccc3c(ccc4ccccc43)c2)cc1 + Cc1cc(Nc2cc(N3CCN(C)CC3)nc(Sc3ccc(NC(=O)C4CC4)cc3)n2)n[nH]1 [Tozasertib] (partner 0.1 µM)
In short: as §2

With UMC-11 the relative viability ([1]; 0.1 µM) was 1.03, the relative viability ([1]; 1 µM) was 0.973 and the relative viability ([1]; 3.162 µM) was 0.572. For the same cell line, the relative viability ([2]; 0.02 µM) was 0.93, the relative viability ([2]; 0.06325 µM) was 1 and the relative viability ([2]; 0.2 µM) was 1.05. For the same cell line, the relative viability ([2]; 0.6325 µM) was 1.01, the relative viability ([2]; 2 µM) was 0.931 and the relative viability ([3]; first compound 0.1 µM) was 0.293. For the same cell line, the relative viability ([3]; first compound 1 µM) was 0.267, the relative viability ([3]; first compound 3.162 µM) was 0.184 and the relative viability ([4]; first compound 0.1 µM) was 0.861. The relative viability ([4]; first compound 1 µM) was 0.779, the relative viability ([4]; first compound 3.162 µM) was 0.549 and the relative viability ([5]; first compound 0.02 µM) was 0.191. It also gave a relative viability ([5]; first compound 0.06325 µM) of 0.21, a relative viability ([5]; first compound 0.2 µM) of 0.218 and a relative viability ([5]; first compound 0.6325 µM) of 0.19. It also gave a relative viability ([5]; first compound 2 µM) of 0.183.

— the supplement of paper PMC10307832
